# According to patent publication US7429607B2, “5-HT2B receptor antagonists” (Asterand UK Limited, priority 2002, dated 2008):
# Key:
# [1] = biological target: T1, cloned human 5-HT2A receptor (Homo sapiens, UniProt P28223); assay: Human 5-HT2A receptor binding assay ([3H]ketanserin, CHO-K1 membranes); settings: displacement of [3H]ketanserin (1 nM), read-out: 5-HT2A pKi (converted)
# T1 construct: purchased Euroscreen; host or cells: CHO-K1 cells
# Experimental: (§1) The binding affinity of ligands for human 5-HT2A and 5-HT2C receptors was determined using the following assay.
# Membrane preparations from CHO-K1 cells expressing the cloned human 5-HT2A receptor were obtained (Euroscreen). The membranes were thawed rapidly and diluted in assay buffer containing Tris-HCl (50 mM, pH 7.7). The membranes were resuspended by homogenisation, prior to adding 15 μg of membranes to assay wells containing [3H] ketanserin (1 nM), assay buffer (50 mM Tris at pH 7.4) containing pargyline (10 μM), and test compounds (1×10^−10 to 1×10^−4M). Non specific binding was determined in the presence of 100 μM mianserin. After 15 minutes incubation at 37° C., the assay mixture was filtered through a combination of GF-C and GF-B filters, pre-soaked in 0.05% Brij, using a Brandel cell harvester, and were washed three times using ice cold Tris-HCl buffer (50 mM). Radioactivity retained on the filters was determined by liquid scintillation counting. For each test compound, the concentration that inhibited binding of [^3H]ketanserin by 50% was determined using curve fitting software (Prism). Kd values (concentration of ketanserin required to occupy 50% of the receptor binding sites at equlibrium) determined from saturation binding studies were then used to calculate inhibition dissociation constants (Ki) using the following equation: […]
# [2] = biological target: T2, cloned human 5-HT2C receptor (Homo sapiens, UniProt P28335); assay: Human 5-HT2C receptor binding assay ([3H]mesulergine, CHO-K1 membranes); settings: displacement of [3H]mesulergine (1 nM), read-out: 5-HT2C pKi (converted)
# T2 construct: purchased Euroscreen; host or cells: CHO-K1 cells
# T2 sequence (P28335 33-458): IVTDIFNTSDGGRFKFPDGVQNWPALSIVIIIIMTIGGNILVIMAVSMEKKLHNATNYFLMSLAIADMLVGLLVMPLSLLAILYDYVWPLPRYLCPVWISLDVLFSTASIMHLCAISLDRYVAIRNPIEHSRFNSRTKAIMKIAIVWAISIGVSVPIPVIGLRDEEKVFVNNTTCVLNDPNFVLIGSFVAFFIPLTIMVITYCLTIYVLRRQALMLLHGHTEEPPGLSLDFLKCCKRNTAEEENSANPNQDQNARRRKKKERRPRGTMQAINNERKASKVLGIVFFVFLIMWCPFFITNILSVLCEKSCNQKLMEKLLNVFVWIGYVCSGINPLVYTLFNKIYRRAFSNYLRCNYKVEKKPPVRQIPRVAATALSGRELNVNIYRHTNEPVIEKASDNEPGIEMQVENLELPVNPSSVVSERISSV
# Experimental: as §1
# Membrane preparations from CHO-K1 cells expressing the cloned human 5-HT2C receptor were obtained (Euroscreen). The membranes were thawed rapidly and diluted in assay buffer containing Tris-HCl (50 mM, pH 7.7), ascorbic acid (0.1%) and pargyline (10 μM). The membranes were resuspended by homogenisation, prior to adding 6 μg of membranes to assay wells containing [^3H] mesulergine (1 nM), assay buffer (50 mM Tris at pH 7.7 and 0.1% ascorbic acid) containing pargyline (10 μM), and test compounds (1×10^−10 to 1×10^−4M). Non specific binding was determined in the presence of 100 μM mianserin. After 30 minutes incubation at 37° C., the assay mixture was filtered through a combination of GF-C and GF-B filters, pre-soaked in 1% bovine serum albumin, using a Brandel cell harvester, and were washed three times using ice cold Tris-HCl buffer (50 mM). Radioactivity retained on the filters was determined by liquid scintillation counting. For each test compound, the concentration that inhibited binding of [3H]mesulergine by 50% was determined using curve fitting software (Prism). Kd values (concentration of mesulergine required to occupy 50% of the receptor binding sites at equlibrium) determined from saturation binding studies were then used to calculate inhibition dissociation constants (Ki) using the following equation: […]
# [3] = biological target: T3, 5-HT2B receptor in human tissues (Homo sapiens, UniProt P41595); assay: Human 5-HT2B receptor tissue based functional assay (human colon longitudinal smooth muscle); format: cell-based; settings: antagonism of 5-HT effect on electrically stimulated human colon longitudinal muscle; pKB=log(CR-1)-log(antagonist concentration)
# T3 construct: from tissue; host or cells: human colon longitudinal smooth muscle strips
# Experimental: An in vitro functional assay, using human colon smooth muscle, was carried out to determine the affinity of the test compounds at the 5-HT2B receptor in human tissues. Sections of human colon were cut open along their longitudinal axis. The sections were pinned out flat and the mucosa carefully removed using sharp dissecting scissors. Once the mucosa was removed, the section was turned over to reveal the three taenia coli (taenia mesencolica, taenia omentalis and taenia libera) and the muscle bands that lie between them. Longitudinal muscle strips (2 mm wide by 20 mm long) were then cut from the tissue between the taenia coli and suspended between stainless steel hooks in organ chambers containing oxygenated (95% O2/5% CO2) Krebs solution at 37° C. The composition of the Krebs solution was as follows: NaCl (118.2 mM), KCl (4.69 mM), MgSO4.7H2O (1.18 mM), KH2PO4 (1.19 mM), glucose (11.1 mM), NaHCO3 (25.0 mM), CaCl2.6H2O (2.5 mM). Tissues were placed under a load equivalent to 10 mN and left to equilibrate for a period of at least 60 minutes. Responses were recorded using isometric transducers coupled to an Apple Macintosh computer via a MacLab interface. After 60 minutes, the longitudinal muscle sections of the human colon were stimulated electrically (sub-maximal voltage and frequency with 60s between successive stimulations) using parallel platinum wire electrodes and a Multistim D330 pulse stimulator. Upon electrical stimulation, the strips of human colon longitudinal smooth muscle responded with a rapid contraction. Once the response to electrical stimulation had stabilised (stimulated responses differed by no more than 10%), the strips were exposed to increasing concentrations of 5-HT (1×10^−9 to 1×10^−5M), in the absence or presence of test compounds (1×10^−7 to 1×10^−5M, incubated for 30 minutes). To determine the affinity of the compounds, the concentration of 5-HT required to produce half-maximal effects (EC50) was calculated in the absence and presence of test compound. The antagonist affinity was calculated by dividing the EC50 for 5-HT in the presence of antagonist by the EC50 for 5-HT in the absence of antagonist to yield a concentration ratio (CR). The results are shown in table 2 below as a pKB value, which is calculated as follows: pKB=log(CR−1)−log(antagonist concentration). This approach follows that set out in Kenakin, T. P. Pharmacologic analysis of drug-receptor interaction. Raven Press, New York, 2nd Edition.
# T3 sequence (P41595 whole entry): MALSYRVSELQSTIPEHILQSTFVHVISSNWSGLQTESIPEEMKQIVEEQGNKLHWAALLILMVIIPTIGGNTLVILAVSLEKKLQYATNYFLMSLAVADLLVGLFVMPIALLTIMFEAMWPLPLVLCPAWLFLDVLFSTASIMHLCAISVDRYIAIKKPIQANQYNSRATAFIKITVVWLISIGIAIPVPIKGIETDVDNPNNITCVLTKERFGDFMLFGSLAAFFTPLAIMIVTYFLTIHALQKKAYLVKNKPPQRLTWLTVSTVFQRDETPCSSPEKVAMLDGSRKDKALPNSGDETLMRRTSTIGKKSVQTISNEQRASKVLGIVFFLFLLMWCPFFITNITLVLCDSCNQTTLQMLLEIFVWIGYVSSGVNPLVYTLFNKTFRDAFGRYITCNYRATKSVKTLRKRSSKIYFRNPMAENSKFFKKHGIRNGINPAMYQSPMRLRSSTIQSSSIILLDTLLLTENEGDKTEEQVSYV
# T1 sequence (P28223 whole entry): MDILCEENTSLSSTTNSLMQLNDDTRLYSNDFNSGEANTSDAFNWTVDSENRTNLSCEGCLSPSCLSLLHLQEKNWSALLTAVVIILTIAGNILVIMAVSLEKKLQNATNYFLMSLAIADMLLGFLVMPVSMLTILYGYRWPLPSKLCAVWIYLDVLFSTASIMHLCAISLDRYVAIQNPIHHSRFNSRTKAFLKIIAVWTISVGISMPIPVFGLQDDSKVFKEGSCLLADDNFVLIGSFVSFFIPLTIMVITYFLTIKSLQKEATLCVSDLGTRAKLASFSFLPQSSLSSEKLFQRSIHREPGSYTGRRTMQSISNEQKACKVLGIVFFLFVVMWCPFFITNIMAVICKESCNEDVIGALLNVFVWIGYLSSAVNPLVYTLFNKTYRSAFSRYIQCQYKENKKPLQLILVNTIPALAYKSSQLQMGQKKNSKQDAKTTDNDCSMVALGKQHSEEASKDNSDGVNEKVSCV
SMILES,Ki [1],Ki [2],Kb [3],melting point
"CC(C)c1nc(N)oc1-c1cccc2ccccc12 [Compound 7, 2-amino-4-isopropyl-5-(naphth-1-yl)oxazole]",> 100 nM,> 1000 nM,< 10 nM,127 to 129 °C
"CC(C)c1nc(N)oc1-c1ccc(F)c2ccccc12 [Compound 31, 2-amino-5-(4′-fluoronaphth-1-yl)-4-isopropyloxazole]",> 1000 nM,> 1000 nM,< 100 nM,141 °C
"Nc1nc(-c2cccc3ccccc23)co1 [Compound 1, 2-amino-4-(naphth-1-yl)oxazole]",> 10000 nM,> 1000 nM,< 100 nM,155 to 162 °C
"COc1ccc2ccccc2c1-c1coc(N)n1 [Compound 17, 4-(2-methoxy-naphthalen-1-yl)-oxazol-2-ylamine]",> 1000 nM,> 100 nM,< 10 nM,
"Cc1ccc2ccccc2c1-c1coc(N)n1 [Compound 6, 2-amino-4-(2′-methylnaphth-1-yl)oxazole]",> 1000 nM,> 1000 nM,< 100 nM,
